{"source": "paper PMC8777799", "about": "“Anti-α-Glucosidase and Antiglycation Activities of α-Mangostin and New Xanthenone Derivatives: Enzymatic Kinetics and Mechanistic Insights through In Vitro Studies” (Molecules, 2022)", "target": "α-glucosidase", "assay": "pNPG colorimetric enzyme kinetics (Lineweaver–Burk; IC50 […]), supported by fluorescence quenching and circular dichroism", "type": "biochemical, Saccharomyces cerevisiae", "data": [{"smiles": "COc1c(O)cc2oc3cc(O)c(CC=C(C)C)c(O)c3c(=O)c2c1CC=C(C)C", "note": "[α-mangostin, 1,3,6-trihydroxy-7-methoxy-2,8-bis(3-methylbut-2-en-1-yl)-9H-xanthen-9-one]", "values": [{"measurement": "Ki", "result": 30.3, "unit": "µM"}]}]}
